Data: ChEMBL document CHEMBL5727827, “PD-1/PD-L1 inhibitors” (2020)

Molecular target: Programmed cell death protein 1/Programmed cell death 1 ligand 1 (Homo sapiens, UniProt Q15116+Q9NZQ7)
Experiment: Binding of the protein pairs is measured using a bead based Amplified Luminescent Proximity Homogeneous Assay (ALPHA) platform. Binding of each protein pair results in proximity of the donor and acceptor beads which leads to an increase in ALPHA signal. […] Assays are performed in 25 mM Hepes (pH 7.4), 150 mM NaCl, 3.4 mM EDTA, 0.005% Tween 20, and 0.01% BSA. […] After an assay reaction time of 60 minutes at 25° C., binding was measured with addition of 20 μg/mL ALPHA assay acceptor beads (anti-His coated) and 20 µg/mL ALPHA assay donor beads (streptavidin coated). IC50 values were calculated from the fit of the dose-response curves to a four-parameter equation.
Type: protein-complex assay

Programmed cell death protein 1/Programmed cell death 1 ligand 1, sequence (Q15116 whole entry): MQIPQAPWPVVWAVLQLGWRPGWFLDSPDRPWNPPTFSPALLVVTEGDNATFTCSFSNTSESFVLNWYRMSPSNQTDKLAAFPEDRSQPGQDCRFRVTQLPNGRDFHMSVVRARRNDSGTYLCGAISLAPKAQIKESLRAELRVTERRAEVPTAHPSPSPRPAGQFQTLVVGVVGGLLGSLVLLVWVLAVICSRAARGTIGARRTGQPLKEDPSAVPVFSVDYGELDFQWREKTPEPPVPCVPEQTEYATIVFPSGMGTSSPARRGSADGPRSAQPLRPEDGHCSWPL
Programmed cell death protein 1/Programmed cell death 1 ligand 1, sequence (Q9NZQ7 whole entry): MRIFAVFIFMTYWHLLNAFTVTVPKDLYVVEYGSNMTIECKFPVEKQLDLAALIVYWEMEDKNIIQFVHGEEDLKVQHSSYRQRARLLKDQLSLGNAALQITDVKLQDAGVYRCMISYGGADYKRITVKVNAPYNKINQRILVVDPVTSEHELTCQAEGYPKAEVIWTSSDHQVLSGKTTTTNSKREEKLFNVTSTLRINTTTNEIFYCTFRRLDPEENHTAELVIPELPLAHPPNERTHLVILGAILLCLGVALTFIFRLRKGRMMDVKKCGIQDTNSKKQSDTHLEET

## COc1nc(-c2cccc(-c3cccc(-c4cnc(CN5CC(C(C)(C)O)C5)c(OC)n4)c3Cl)c2Cl)cnc1CN
  IC50: 0.346 nM
